Results: US20240287463A1, “INDUCIBLE TISSUE CONSTRUCTS AND USES THEREOF” (Massachusetts Institute of Technology, priority 2020, published 2024)

Tests used:
iCasp9-GFP J2 population = assay: fibroblast removal from 2D micropatterned co-cultures (MPCC); format: cell-based; conditions: 50 nM CID
Source text: Specifically, MPCC were fabricated as described previously (S. R. Khetani and S. N. Bhatia (2005) Nat. Biotechnol 26, 120; S. March et al. (2015) Nat. Protoc. 10, 2007). Briefly, collagen was adsorbed in each well of a 96 well plate (glass bottom), and then patterned using an elastomeric polydimethysiloxane mold and oxygen plasma gas ablation. Human hepatocytes were thawed and seeded (70 k/well) on the collagen islands (500 μm with 1,200 μm center-to-center spacing). Adhered hepatocytes (˜10 k/well) were allowed to spread overnight before fibroblasts were seeded for co-culture (7 k/well). Supernatant was collected from cultures every other day and stored at −20° C. Human albumin was quantified using an enzyme-linked immunosorbent assay using a sheep anti-rat albumin antibody (ELISA) (Bethyl Laboratories) and 3,3′,5,5′-tetramethylbenzidine (TMB, Thermo Fisher). Urea concentration was measured using a colorimetric (diacetylmonoxime) assay with acid and heat (Stanbio Labs). CYP3A4 activity was assessed with the luminogenic P450-GloTM CYP450 assay kit (Promega) for nonlytic assays using cultured cells. Cultures were pre-treated with 2 μM rifampin or 1:1,000 DMSO vehicle control prepared in hepatocyte maintenance media for 72 hours (daily replenishment) where indicated. […]

iCasp9-HDFs [1] = assay: apoptosis of 2D monolayer fibroblasts (cellular ATP, cell density); format: cell-based, human
Method: To be able to remove fibroblasts on demand from the developing co-culture, the synthetically engineered, inducibly activated caspase-9 (iCasp9) outlined in the examples above was used. Using this inducible transgene, iCasp9-HDFs were established and characterized for effectiveness. iCasp9-HDFs were seeded on tissue culture plastic, and allowed to form a confluent monolayer before adding different concentrations of CID.

iCasp9-HDFs [2] = assay: live imaging of fibroblast removal in the 3D microfluidic co-culture device; format: cell-based, human; conditions: 10 nM CID after 7 days of co-culture
Method: More specifically, the molds for the 2-channel microfluidic devices were constructed using stereolithography (Proto Labs). Polydimethylsiloxane (PDMS) was cured at a standard mixing ratio overnight at 60° C. in the mold, and individual devices were cut and plasma-bonded to glass slides. To enhance ECM bonding to PDMS, the surface inside the tissue chamber of the devices was functionalized with 0.01% poly-L-lysine and 1% glutaraldehyde following plasma-activation and washed overnight in DI water. On the day of seeding, devices were soaked in 70% ethanol (EtOH) and dried. Acupuncture needles (300 μm diameter) (Hwato) were blocked in 0.1% (w/v) bovine serum albumin (BSA) (Sigma) in phosphate buffer saline (PBS) for 45 minutes and inserted through the two needle guides. Devices with needles were UV-sterilized for 15 minutes. Once the needles were inserted, a fibrinogen solution containing human umbilical vein endothelial cells (HUVECs) and growth-arrested human dermal fibroblasts (HDFs) were added into the tissue chamber with thrombin. To prepare the cells for seeding, HDFs or iCasp-9 HDFs were growth-arrested with 10 μg/mL mitomycin in FGM-2 for 2.5 hours and thoroughly washed 5 times in FBM. Both HUVECs and HDFs were lifted from culture plates using TrypLE Express (Gibco), centrifuged at 200 g for 4 minutes, and resuspended to a concentration of 20 million cells/mL in EGM-2. […]

CC[C@H](C(=O)N1CCCC[C@H]1C(=O)O[C@H](CCc1ccc(OC)c(OC)c1)c1cccc(OCC(=O)NCC(CNC(=O)COc2cccc([C@@H](CCc3ccc(OC)c(OC)c3)OC(=O)[C@@H]3CCCCN3C(=O)[C@@H](CC)c3cc(OC)c(OC)c(OC)c3)c2)CN(C)C)c1)c1cc(OC)c(OC)c(OC)c1 [CID, AP20187]
removal of fibroblasts from MPCC (iCasp9-GFP J2 population): selective removal of the iCasp9-GFP J2 population | time within which cellular ATP levels dropped precipitously (iCasp9-HDFs [1]; 5 nM CID): 2 to 4 h | reduction of iCasp9-HDFs in culture compared to vehicle control (iCasp9-HDFs [1]; 10 nM CID, overnight): ~96% | rapidity of ATP loss (iCasp9-HDFs [1]; 5, 50, 500 nM CID): increased with increasing CID concentration | time by which most of the fibroblast population was removed (iCasp9-HDFs [2]): ≤ 10 h | time to rapid rounding of iCasp9-HDFs (iCasp9-HDFs [2]): ≤ 5 h
